In PubChem BioAssay (NCI):
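Each compound was tested at five concentrations against cells in 96-well plates for 48 hours. At the GI50, growth is halved. Definition used: TGI = concentration required for complete inhibition of growth.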

Columns and labels:
Assay in all cases: NCI tumour cell line growth inhibition, 48 h; in the data active = GI50 below about 0.43 µM; inactive = the rest
786-0 renal = test system: 786-0 renal
A549 NSCLC = test system: A549 NSCLC
IGROV1 ovarian = test system: IGROV1 ovarian
M14 melanoma = test system: M14 melanoma
NCI-H460 lung = test system: NCI-H460 lung
HCT-116 colon = test system: HCT-116 colon
NCI/ADR-RES ovarian = test system: NCI/ADR-RES ovarian
UACC-257 melanoma = test system: UACC-257 melanoma
SK-MEL-5 melanoma = test system: SK-MEL-5 melanoma
HCT-15 colon = test system: HCT-15 colon
K-562 leukemia = test system: K-562 leukemia
SNB-19 CNS = test system: SNB-19 CNS
SR leukemia = test system: SR leukemia
RPMI-8226 leukemia = test system: RPMI-8226 leukemia
HCC-2998 colon = test system: HCC-2998 colon
SK-MEL-28 melanoma = test system: SK-MEL-28 melanoma
U251 CNS = test system: U251 CNS
MOLT-4 leukemia = test system: MOLT-4 leukemia
LOX IMVI melanoma = test system: LOX IMVI melanoma
SF-539 CNS = test system: SF-539 CNS
ACHN renal = test system: ACHN renal
HL-60(TB) leukemia = test system: HL-60(TB) leukemia
CCRF-CEM leukemia = test system: CCRF-CEM leukemia
OVCAR-3 ovarian = test system: OVCAR-3 ovarian
KM12 colon = test system: KM12 colon
TK-10 renal = test system: TK-10 renal
SNB-75 CNS = test system: SNB-75 CNS

Nc1ncc(-c2ccc3ncnc(N4CCc5cc(F)c(Cl)cc54)c3c2)cn1
1270 nM: TGI (IGROV1 ovarian)
1850 nM: TGI (SNB-75 CNS)
36600 nM: TGI (MOLT-4 leukemia)
> 100000 nM: TGI (786-0 renal) | TGI (A549 NSCLC) | TGI (M14 melanoma) | TGI (NCI-H460 lung) | TGI (HCT-116 colon) | TGI (NCI/ADR-RES ovarian) | TGI (UACC-257 melanoma) | TGI (HCT-15 colon) | TGI (K-562 leukemia) | TGI (SNB-19 CNS) | TGI (SR leukemia) | TGI (HCC-2998 colon) | TGI (SK-MEL-28 melanoma) | TGI (U251 CNS) | TGI (LOX IMVI melanoma) | TGI (SF-539 CNS) | TGI (ACHN renal) | TGI (HL-60(TB) leukemia) | TGI (CCRF-CEM leukemia) | TGI (OVCAR-3 ovarian) | TGI (KM12 colon)
11000 nM: TGI (SK-MEL-5 melanoma)
5440 nM: TGI (RPMI-8226 leukemia)
active: GI50 (IGROV1 ovarian) 244 nM | GI50 (SNB-75 CNS) 162 nM
inactive: GI50 (786-0 renal) 741 nM | GI50 (A549 NSCLC) 1320 nM | GI50 (M14 melanoma) 2860 nM | GI50 (NCI-H460 lung) 1040 nM | GI50 (HCT-116 colon) 1990 nM | GI50 (NCI/ADR-RES ovarian) 2700 nM | GI50 (UACC-257 melanoma) 3730 nM | GI50 (SK-MEL-5 melanoma) 2290 nM | GI50 (HCT-15 colon) 1940 nM | GI50 (K-562 leukemia) 3160 nM | GI50 (SNB-19 CNS) 2420 nM | GI50 (SR leukemia) 2250 nM | GI50 (RPMI-8226 leukemia) 866 nM | GI50 (HCC-2998 colon) 3120 nM | GI50 (SK-MEL-28 melanoma) 2640 nM | GI50 (U251 CNS) 3260 nM | GI50 (MOLT-4 leukemia) 1830 nM | GI50 (LOX IMVI melanoma) 1940 nM | GI50 (SF-539 CNS) 1910 nM | GI50 (ACHN renal) 557 nM | GI50 (HL-60(TB) leukemia) 1130 nM | GI50 (CCRF-CEM leukemia) 1600 nM | GI50 (OVCAR-3 ovarian) 1350 nM | GI50 (KM12 colon) 3360 nM | GI50 (TK-10 renal) 696 nM
7410 nM: TGI (TK-10 renal)
